In US20050032904A1, “Composition and use of allylamine derivatives” (priority 2003, published 2005):

Tests used:
HL 60 cells = assay: Flow cytometry (FACS) cell cycle analysis; format: cell-based, human; conditions: TB 10-150 μM, 15 h
[1] = tested on: p53 and p21/Cip1 protein in COLO 205 tumor; assay: Western blot of COLO 205 tumor; format: in vivo, nude mouse; conditions: tumor isolated at 6 weeks after TB treatment
Protocol: Western blot analyses show the levels of p53 and p21/Cip1 protein in COLO 205 tumor (C). COLO 205 tumors were isolated for protein extraction at 6 weeks after DMSO or TB treatment. Membranes were also probed with anti-GAPDH antibody to correct for differences in protein loading. […] Western blot analysis was performed as previously described (Chen R J, et. al., Toxicology & Applied Pharmacology 2000;169(2):132-41; Lee W S, et. al., Circulation Research 1998;82(8):845-51.). Immunodetection was carried by probing with proper dilutions of specific antibodies at room temperature for 2 h. Anti-p21/Cip1, anti-p27/Kip1, anti-p53, anti-GAPDH monoclonal antibodies (Santa Cruz, Inc. CA); anti-cyclin B1, D1, and D3, anti-cdk2 and cdk4, and PCNA monclonal antibodies (Transduction Laboratories, Lexington, Ky.) were used at a concentration of 1:1,000 dilution. Anti-cyclin A and E polyclonal antibodies (Transduction, San Diego, Calif.) were used at a concentration of 1:250 dilution. […] In each experiment, membranes were also probed with anti-GAPDH antibody to correct for differences in protein loading.

HT 29 cells = assay: Flow cytometry (FACS) cell cycle analysis; format: cell-based, human
COLO 205 = assay: Determination of cell growth curve (cell counting); format: cell-based, human
Protocol: The effect of TB on the growth of various human cancer cells […]. In FIG. 1, (A) COLO205, (B) HT29, (C) HepG2, (D) Hep3B, (E) HL60, and (F) normal human fibroblast cells were treated with various concentrations of TB (30 to 120 μM). Media with or without TB were renewed daily until cell counting. Three samples were analyzed in each group. Values represent mean±S.E. The cells were cultured for 5 days with or without TB (30-120 μM), and then the cells were harvested and counted. […] The COLO 205 cells were released from quiescence by incubation in culture media supplemented with 10% FCS and 0.05% DMSO without or with 90 μM TB for 24 h. After 24 h treatment with TB, the cells were washed twice with PBS, replaced with fresh 10% FCS without DMSO or TB. […] The cultured cell numbers in DMSO- and TB-treated group were counted every day. Three samples were analyzed in each group, and values represent the mean±S.E. Human colon cancer, hepatoma, leukemia, and human normal fibroblast cells at a density of 1×10^4 were plated in 35-mm Petri dishes. TB was added at the indicated doses in 0.05% dimethyl-sulfoxide (DMSO). For control specimens, the same volume of the 0.05% DMSO without TB was added. Media with and without TB were changed daily until cell counting

[2] = tested on: cdk4 kinase activity in COLO 205 cells; assay: Immunoprecipitation and kinase activity assay; format: cell-based, human; conditions: 60 μM TB, 15 h after release from quiescence; p53 wild type
Protocol: (§1) (Ko U, and […]. Genes & Development 1996; 10(9): 1054-72; Levine AJ., Cell 1997;88(3):323-31.). […] To further test this hypothesis, we examined the TB effects on the levels of p21/Cip1, p27/Kip1 and p53 protein, and the cdk4 kinase activity in three human cancer cell lines (COLO 205, HT 29 and Hep 3B). […] Antisense or sense p53 was added to COLO 205 at a final concentration of 20 μM at 16 h before the cell was challenged with 10% FCS and 60 μM TB treatment for additional 15 h. […] As previously described (Wu X, et. al., Oncogene 1996;12(7):1397-403.), the TB-treated cells were lysed in Rb lysis buffer, and immunoprecipitated with anti-cdk4 antibody (2 μg). The protein complexes in beads were washed twice with Rb lysis buffer and then once with Rb kinase assay buffer. The level of phosphorylated of Rb (for pRb), histone Hi (for cdk2) and glutathione s-transferase-Rb fusion protein (for cdk4) were measured by incubating the beads with 40 μl of hot Rb kinase solution [0.25 μl (2 μg) of Rb-GST fusion protein, 0.5 μl of (γ-^32P) ATP, 0.5 μl of 0.1 mM ATP and 38.75 μl of Rb kinase buffer] at 37° C. for 30 min, and then stopped by boiling the samples in SDS sample buffer for 5 min. The samples were analyzed by 12% SDS-PAGE, and the gel was then dried and subjected to autoradiography.

[3] = tested on: cdk4 kinase activity in Hep 3B cells; assay: Immunoprecipitation and kinase activity assay; format: cell-based, human; conditions: 60 μM TB, 15 h; p53 partial deletion
Protocol: as §1

[4] = tested on: cdk4 kinase activity in HT 29 cells; assay: Immunoprecipitation and kinase activity assay; format: cell-based, human; conditions: 60 μM TB, 15 h; p53 His273 mutant
Protocol: as §1

[5] = cited from earlier work
[6] = tested on: p53 binding to p21/Cip1 promoter DNA, nuclear extracts of COLO 205 cells; assay: Electrophoretic mobility shift assay (EMSA); format: cell-based, human; conditions: 60 μM TB
Protocol: Antisense or sense p53 was added to COLO 205 at a final concentration of 20 μM at 16 h before the cell was challenged with 10% FCS and 60 μM TB treatment for additional 15 h. […] The radio labeled DNA (4 ng, 100,000 cpm) was incubated with nuclear extract in 15 μl of binding buffer (10 mM Tris-HCl, pH 8.0, 1 mM EDTA, 10% glycerol, 200 mM NaCl, and 1 μg probe DNA) on ice for 5 min. The samples were electrophoresed in a 5% polyacrylamide gel, dried on Whatman 3M paper, and then exposed to Fuji x-ray films at -70° C.

[7] = tested on: human gingival fibroblasts; assay: Determination of cell growth curve (cell counting); format: cell-based; conditions: 5 days
Protocol: The effect of TB on the growth of various human cancer cells wasexamined. In FIG. 1, (A) COLO205, (B) HT29, (C) HepG2, (D) Hep3B, (E) HL60, and (F) normal human fibroblast cells were treated with various concentrations of TB (30 to 120 μM). Media with or without TB were renewed daily until cell counting. Three samples were analyzed in each group. Values represent mean±S.E. The cells were cultured for 5 days with or without TB (30-120 μM), and then the cells were harvested and counted. […] However, when TB concentration was increased to 120 μM, a 50% growth inhibition was observed.
Human colon cancer, hepatoma, leukemia, and human normal fibroblast cells at a density of 1×10^4 were plated in 35-mm Petri dishes. TB was added at the indicated doses in 0.05% dimethyl-sulfoxide (DMSO). For control specimens, the same volume of the 0.05% DMSO without TB was added. Media with and without TB were changed daily until cell counting

[8] = tested on: p53, p21/Cip1 and p27/Kip1 protein in COLO 205 tumor tissues; assay: Immunocytochemical staining of COLO 205 tumor tissues; format: in vivo, nude mouse; conditions: TB-treated vs DMSO-treated nude mice
Hep G2 cells = assay: Flow cytometry (FACS) cell cycle analysis; format: cell-based, human; conditions: various concentrations of TB, 15 h after release from quiescence; dose-dependent
[9] = daily oral 250 mg TB for 4 weeks, human study

In the case of `CN(C/C=C/C#CC(C)(C)C)Cc1cccc2ccccc12` [TB, 1-Naphthalenemethanamine, N-(6,6-dimethyl-2-hepten-4-ynyl)-N-methyl-, (E)-], the “apoptosis (presence of sub G1)” value (HL 60 cells) is reported as “dose-dependently caused the occurrence of apoptosis”, the G0/G1 arrest (HL 60 cells; p53 null cells) is reported as “did not induce G0/G1 arrest” and the “contents of p53 and p21/Cip1 in tumor” value [1] is reported as “increased”. For the same compound, the “accumulation of cells at the G0/G1 phase” value (HT 29 cells; 90 μM TB after release from quiescence) was > 90%, the “G0/G1 arrest, dose effect” value (HT 29 cells; various concentrations of TB, 15 h after release from quiescence, dose-dependent) was “induced G0/G1 arrest” and the “duration of inhibition of cell proliferation after removal of TB” value (COLO 205; 90 μM TB for 24 h, then removed) was “at least 7 days”. The “reversibility of TB-induced inhibition of cell proliferation” value (COLO 205; 90 μM TB for 24 h, then washed and replaced with fresh 10% FCS) was “not reversed by removal of TB”, the cell number (COLO 205; TB 30-120 μM, 5 days, media renewed daily, dose-dependent) was “decreased cell number” and the “cell growth at TB 60 μM” value (COLO 205; TB concentration increased to 60 μM, 5 days) was “cell growth arrest or cell death”. The “assayable cdk4 kinase activity” value [2] was “strong decrease”, the “assayable cdk4 kinase activity” value [3] was “slight decrease” and the “assayable cdk4 kinase activity” value [4] was “slight decrease”. For the same compound, the “fraction of TB absorbed” value ([5]; after an oral dose (250 mg)) was “approximately 70%”, the maximum plasma concentrations ([5]; after an oral dose (250 mg)) was 0.5 to 1.5 µg/mL and the “time to reach maximum plasma concentrations” value ([5]; after an oral dose (250 mg)) was ≤ 2 h. The “plasma level of TB” value [5, 9] was 1700 ± 770 ng/mL, the plasma level of TB (molar) [5, 9] was 5.83 µM and the “binding between p53 protein and p53 consensus binding site in p21/Cip1 promoter DNA probe” value [6] was “increased the binding”. For the same compound, the inhibition at 120 µM ([7]; Homo sapiens, Fibroblast, 120 h, TB 120 μM, medium changed daily, read-out: growth inhibition (reduction of cell count)) was 50%, the growth rate ([7]; TB 30-60 μM) was “did not inhibit the growth rate” and the “p53, p21/Cip1 and p27/Kip1 immunoreactivities in tumor tissues” value [8] was “strongly induced”. The “G0/G1 arrest, dose effect” value (Hep G2 cells) was “induced G0/G1 arrest”.
